Reference: publication PMC9570413, “A New Phospholipase D from Moritella sp. JT01: Biochemical Characterization, Crystallization and Application in the Synthesis of Phosphatidic Acid” (International Journal of Molecular Sciences, 2022)

Target: T1, MsPLD (phospholipase D from Moritella sp. JT01) (Moritella sp. JT01, UniProt A0A137SLD1)
T1 construct: gene AKG98_3441; precursor 578 residues; C-terminal 6xHis (pET-21a); E. coli SHuffle T7; about 62 kDa
T1 sequence (A0A137SLD1 29-578): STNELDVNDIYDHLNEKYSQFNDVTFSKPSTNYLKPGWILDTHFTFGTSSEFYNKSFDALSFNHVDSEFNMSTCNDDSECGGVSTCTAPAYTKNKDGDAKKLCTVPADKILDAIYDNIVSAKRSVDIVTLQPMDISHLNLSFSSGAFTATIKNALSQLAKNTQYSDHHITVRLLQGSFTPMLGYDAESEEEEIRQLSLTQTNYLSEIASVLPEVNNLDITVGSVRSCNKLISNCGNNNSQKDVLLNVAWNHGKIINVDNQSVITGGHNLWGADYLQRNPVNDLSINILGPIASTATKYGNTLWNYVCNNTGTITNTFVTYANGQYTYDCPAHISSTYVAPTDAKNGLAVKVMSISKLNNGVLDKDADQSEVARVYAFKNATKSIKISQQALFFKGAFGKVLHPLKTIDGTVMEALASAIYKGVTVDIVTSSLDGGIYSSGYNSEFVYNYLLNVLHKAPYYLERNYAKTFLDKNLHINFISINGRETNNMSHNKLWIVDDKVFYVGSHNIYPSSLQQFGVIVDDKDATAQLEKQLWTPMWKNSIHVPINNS
Test: enzyme-linked colorimetry (choline oxidase/peroxidase), Michaelis-Menten
Type: biochemical
Conditions: 0.1 M Tris-HCl pH 8.0, 35 °C, SDS and Triton X-100 in assay mixture; 0.5-8.0 mM PC; natural soybean PC, acyl chains not defined (class of species, no single structure)
Procedure: enzyme-linked colorimetry (choline oxidase/peroxidase), Michaelis-Menten on MsPLD (phospholipase D from Moritella sp. JT01) | the kinetic parameters of MsPLD to soy PC were determined

## L-α-phosphatidylcholine from soybean
  Km: 3.44 ± 0.81 mM
